Measured values as given in US20230174649A1, “PHARMACEUTICAL COMPOSITIONS CONTAINING ANTI-CD47 ANTIBODIES” (I-MAB BIOPHARMA US LIMITED, priority 2020, published 2023).

Tested on: HL-60 cells
Test: Anti-tumor efficacy in subcutaneous HL-60 xenograft model
Assay type: in vivo, female NOG mice
Details: for antitumor activity compared with the control group: day 12; for Tumor volume / Tumor Size (mm^3) at day 12, Mean ± SEM: listed as AZA
Procedure: HL-60 cells (a human promyelocytic leukemia cell line, ATCC® cat #CCL-240) were maintained in suspension culture in complete cell growth medium at 37° C. in an atmosphere with 5% CO2. The cells were split twice a week to maintain an exponential growth. After culturing, cells were harvested and counted for tumor inoculation.
To establish the xenograft model, HL-60 cells (10×10^6) were suspended in 0.2 mL of PBS with the same volume of Matrigel and subcutaneously injected into the right flank of each mouse. When tumor volume reaches a mean value of approximately 72 mm^3, i.e., on day 6 after inoculation, mice were divided into several groups and treated with PBS (control group), anti-CD47 antibody (i.e., T4J), AZA, or a combination of T4J and AZA, respectively.
At the time of routine monitoring, the animals were daily checked for any effects of tumor growth and treatments on normal behavior such as mobility, food and water consumption (by looking only), body weight gain/loss (body weights were measured twice a week), eye/hair matting and any other abnormal effects. Death and observed clinical signs were recorded.
Tumor size was measured twice a week in two dimensions using a caliper, and the volume was calculated using the formula: Volume (V)=(L×W×W)/2, where L is tumor length (the longest tumor dimension) and W is tumor width (the longest tumor dimension perpendicular to L). The tumor volume was then used for calculating T/C values. The T/C value (in percentage) is an indicator of antitumor effectiveness, in which T and C are the mean volumes of the treatment group and the control groups, respectively.
The percentage of tumor growth inhibition (TGI) was calculated for each group as follows: 100%×(1−[(Vtreated(^final day)−Vtreated(^initial day))/Vcontrol(^final day)−Vcontrol(^initial day)))], where V is the tumor volume.
Tumor body weight was measured at the end of the study. T/C weight value (in percentage) was calculated using the formula: T/C weight %=T weight/C weight×100% where T weight and C weight were the mean tumor body weight of the treatment group and the control group (vehicle group), respectively.
Q=TGI(A+B))/(TGI(A)+TGI(B)−TGI(A)×TGI(B))
According to Jin's formula, Q<0.85 indicates antagonistic effect, 0.85≤Q<1.15 indicates additive effect, and Q≥1.15 indicates synergistic effect.
T-test was performed to compare tumor body weight among groups. One-way ANOVA was performed to compare tumor volume among groups, and when a significant F-statistics (a ratio of treatment variance to the error variance) was obtained, comparisons between groups were carried out with Games-Howell test. All data were analyzed using IBM SPSS software. A P value of less than 0.05 (p<0.05) was considered statistically significant.

Compound: Nc1ncn([C@@H]2O[C@H](CO)[C@@H](O)[C@H]2O)c(=O)n1 [Azacitidine]
- antitumor activity compared with the control group (1 mg/kg): no obvious antitumor activity
- antitumor activity compared with the control group (2 mg/kg): certain anti-tumor activity
- Tumor volume (mm^3), Mean ± SEM (day 0 (first dosing), 1 mg/kg): 70 ± 7 mm^3
- Tumor volume (mm^3), Mean ± SEM (day 0 (first dosing), 2 mg/kg): 70 ± 7 mm^3
- Tumor volume (mm^3), Mean ± SEM (day 3, 1 mg/kg): 189 ± 11 mm^3
- Tumor volume (mm^3), Mean ± SEM (day 3, 2 mg/kg): 161 ± 20 mm^3
- Tumor volume (mm^3), Mean ± SEM (day 7, 1 mg/kg): 589 ± 41 mm^3
- Tumor volume (mm^3), Mean ± SEM (day 7, 2 mg/kg): 498 ± 82 mm^3
- Tumor volume (mm^3), Mean ± SEM (day 10, 1 mg/kg): 1142 ± 86 mm^3
- Tumor volume (mm^3), Mean ± SEM (day 10, 2 mg/kg): 773 ± 145 mm^3
- T/C (%) (day 12, 1 mg/kg): 70.21%
- TGI (%) (day 12, 1 mg/kg): 30.52%
- Tumor volume / Tumor Size (mm^3) at day 12, Mean ± SEM (day 12, 1 mg/kg): 2081±177 mm^3
- T/C (%) (day 12, 2 mg/kg): 48.98%
- TGI (%) (day 12, 2 mg/kg): 52.27%
- Tumor volume / Tumor Size (mm^3) at day 12, Mean ± SEM (day 12, 2 mg/kg): 1452±253 mm^3
